Data as given in publication PMC11634579, “Network pharmacology, experimental validation and pharmacokinetics integrated strategy to reveal pharmacological mechanism of goutengsan on methamphetamine dependence” (Frontiers in Pharmacology, 2024).
Entries after “also recorded” stand apart in the source; their conditions may differ.

What was measured:
[1] = parameters: method as in Ru et al., 2014; details: obtained from TCMSP database; ref Ru et al., 2014; cited from earlier work
[2] = Pharmacokinetics and brain tissue distribution after gavage of GTS (UPLC-MS); type: in vivo, Babl/c mice; details: mice; for time at which concentration in brain peaked: gavage of GTS infusion (2.75 g crude drug/mL, 2 mL/kg), sampling 0.5, 2, 4, 6, 9 h
Experimental: Animal experiments: Babl/c mice weighing 18–22 g (6–8 weeks old) with equal numbers of males and females, were provided by the Experimental Animal Center of Southern Medical University. The mice were maintained at room temperature (20 ± 2) °C, humidity (60 ± 5)%, 12 h light cycles, and provided an ad libitum diet. Thirty mice were randomly divided into 0.5, 2, 4, 6 and 9 h groups, with 6 mice each. An infusion at concentration of 2.75 g of GTS crude drug/mL was obtained, and the drug was administered by gavage at a dose of 2 mL GTS infusion drug/kg. After 0.5, 2, 4, 6 and 9 h of administration, the plasma and brain tissues in the 0.5, 2, 4, 6 and 9 h groups were collected. The plasma and brain tissue samples were processed in accordance with biological sample processing procedures.
Establishment of UPLC-MS method: An LCMS-8050 liquid chromatography mass spectrometer (Shimadzu, Japan) was operated with a horizon C18 column (100 × 2.1 mm, 3 µm). The mobile phase was 0.1% formic acid in water (A) - acetonitrile (B), and the gradient elution was 0–8 min, 10%–50% B; 8–9 min, 50%–10% B; 9–11 min, 10% B. The column temperature was 30°C, the injection volume was 5 μL, and flow rate was 0.4 mL min^−1. The mass spectrometry conditions included HPLC-MS/MS in […] full-scan and sub-ion scanning modes, an electrospray ionization source (ESI), positive and negative ion mode detection, and nebulizing gas of nitrogen (N2). The zeroed gas flow rate was 3 L min^−1, desolventization temperature was 526°C, and DL temperature was 250°C. Then the parent ion, daughter ion, collision energy, and polarity of the above components were determined (Table 2).

[3] = after oral administration of GTS
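For BBB (blood–brain–barrier) in this document: unitless TCMSP predicted score with screening cut-off BBB at least 0.3.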

Molecule: CCCCCCCCOC(=O)c1ccccc1C(=O)OCCCC [Butyl octyl phthalate]
- BBB (blood–brain–barrier) [1]: 0.60
- OB% (oral bioavailability) [1]: 43.74%

Molecule: O=c1oc2ccccc2c2oc3ccccc3c(=O)c12 [Frutinone A]
- BBB (blood–brain–barrier) [1]: 0.46
- OB% (oral bioavailability) [1]: 65.90%

Molecule: COc1ccc(C2COc3c(ccc4c3C=CC(C)(C)O4)C2)c(O)c1O (stereo not shown) [3′-hydroxy-4′-O-methylglabridin]
- BBB (blood–brain–barrier) [1]: 0.73
- OB% (oral bioavailability) [1]: 43.71%

Molecule: CC1(C)[C@@H](O[C@H]2O[C@H](C(=O)O)[C@@H](O)[C@H](O)[C@H]2O[C@@H]2O[C@H](C(=O)O)[C@@H](O)[C@H](O)[C@H]2O)CC[C@]2(C)[C@H]3C(=O)C=C4[C@@H]5C[C@@](C)(C(=O)O)CC[C@]5(C)CC[C@@]4(C)[C@]3(C)CC[C@@H]12 [Glycyrrhizic acid]
- BBB (blood–brain–barrier) [1]: 0.80
- OB% (oral bioavailability) [1]: 30.70%
- detection in brain tissues [2, 3]: undetectable
- detection in plasma [2, 3]: detectable in plasma and at high levels

Molecule: CC(C)=CCc1c2ccoc2c(O)c2oc(=O)ccc12 [Prangenidin]
- BBB (blood–brain–barrier) [1]: 0.50
- OB% (oral bioavailability) [1]: 36.31%

Molecule: COc1c2ccoc2c(OCC=C(C)C)c2oc(=O)ccc12 [Phelloptorin]
- BBB (blood–brain–barrier) [1]: 0.43
- OB% (oral bioavailability) [1]: 43.39%

Molecule: CC[C@H](CC[C@@H](C)[C@H]1CC[C@H]2[C@@H]3CC=C4C[C@@H](O)CC[C@]4(C)[C@H]3CC[C@]12C)C(C)C [Sitosterol]
- BBB (blood–brain–barrier) [1]: 0.87

Molecule: CCCCCC=CCC=CCCCCCCCCCC(=O)OC [Methyl icosa-11,14-dienoate]
- BBB (blood–brain–barrier) [1]: 1.10
- OB% (oral bioavailability) [1]: 39.67%

Molecule: C=C[C@H]1CN2CCc3c([nH]c4ccccc34)[C@H]2C[C@@H]1/C(=C\OC)C(=O)OC [delta (sup 18)-Hirsutine]
- BBB (blood–brain–barrier) [1]: 0.76
- OB% (oral bioavailability) [1]: 41.64%

Molecule: CC[C@H]1CN2CCc3c([nH]c4ccccc34)[C@H]2C[C@@H]1/C(=C\OC)C(=O)OC [Hirsutine]
- BBB (blood–brain–barrier) [1]: 0.78
- OB% (oral bioavailability) [1]: 34.44%

Molecule: CC[C@H]1CN2CC[C@]3(C(=O)Nc4ccccc43)[C@@H]2C[C@@H]1/C(=C\OC)C(=O)OC [Rhynchophylline]
- BBB (blood–brain–barrier) [1]: 0.38
- OB% (oral bioavailability) [1]: 41.82%
- exposure in plasma and brain [2, 3]: exposed in the plasma and brain; also recorded: absorbed into the bloodstream and distributed to brain tissues
- time at which concentration in brain peaked [2]: 6 h

Molecule: CC1(C)C=Cc2c(ccc([C@@H]3COc4cc(O)ccc4C3)c2O)O1 [Phaseolinisoflavan]
- BBB (blood–brain–barrier) [1]: 0.46
- OB% (oral bioavailability) [1]: 32.01%

Molecule: CC1(C)C=Cc2c(ccc3c2OC[C@@H](c2ccc(O)cc2O)C3)O1 [Glabridin]
- BBB (blood–brain–barrier) [1]: 0.36
- OB% (oral bioavailability) [1]: 53.25%

Molecule: CCCCC/C=C\C/C=C\CCCCCCCC(=O)OCC [Mandenol]
- BBB (blood–brain–barrier) [1]: 1.14
- OB% (oral bioavailability) [1]: 42.00%

Molecule: CC1(C)CC[C@]2(C(=O)O)CC[C@]3(C)C(=CC[C@@H]4[C@@]5(C)CC[C@H](O)[C@@](C)(CO)[C@@H]5CC[C@]43C)[C@@H]2C1 [Hederagenin]
- BBB (blood–brain–barrier) [1]: 0.96

Molecule: COc1cc2c(cc1OC)[C@H]1[C@@H](C)c3ccc4c(c3CN1CC2)OCO4 [Cavidine]
- BBB (blood–brain–barrier) [1]: 0.63
- OB% (oral bioavailability) [1]: 35.64%

Molecule: CC(C)=CCOc1c2occc2cc2ccc(=O)oc12 [Ammidin]
- BBB (blood–brain–barrier) [1]: 0.92
- OB% (oral bioavailability) [1]: 34.55%

Molecule: CC1(C)C=Cc2c(ccc3c2OC[C@H]2c4ccc(O)cc4O[C@@H]32)O1 [Shinpterocarpin]
- BBB (blood–brain–barrier) [1]: 0.68
- OB% (oral bioavailability) [1]: 80.30%

Molecule: COc1cc(CNC(=O)CCCCCCC(C)C)ccc1O [Dihydrocapsaicin]
- BBB (blood–brain–barrier) [1]: 0.47
- OB% (oral bioavailability) [1]: 47.07%

Molecule: CC(C)=CCOc1c2ccoc2cc2oc(=O)ccc12 [Isoimperatorin]
- BBB (blood–brain–barrier) [1]: 0.66
- OB% (oral bioavailability) [1]: 45.46%

Molecule: CCCCCCC=CCC=CCCCCCCCCC(=O)O [10,13-eicosadienoic acid]
- BBB (blood–brain–barrier) [1]: 0.82
- OB% (oral bioavailability) [1]: 39.99%

Molecule: CC[C@H](CC[C@@H](C)[C@H]1CC[C@H]2[C@@H]3CC=C4C[C@@H](O)CC[C@]4(C)[C@H]3CC[C@]12C)C(C)C [Beta-sitosterol]
- BBB (blood–brain–barrier) [1]: 0.99

Molecule: COc1c2ccoc2c(OCC=C(C)C)c2oc(=O)ccc12 [Phellopterin]
- BBB (blood–brain–barrier) [1]: 0.48
- OB% (oral bioavailability) [1]: 40.19%

Molecule: CCCCC/C=C\C/C=C\C/C=C\C/C=C\CCCC(=O)O [Arachidonate]
- BBB (blood–brain–barrier) [1]: 0.58
- OB% (oral bioavailability) [1]: 45.57%

Molecule: COc1ccc2c(=O)c(-c3ccccc3)c(C)oc2c1 [7-methoxy-2-methyl isoflavone]
- BBB (blood–brain–barrier) [1]: 0.56
- OB% (oral bioavailability) [1]: 42.56%

Molecule: CCC(CC[C@@H](C)[C@H]1CC[C@H]2[C@@H]3CCC4=CC(=O)CC[C@]4(C)[C@H]3CC[C@]12C)C(C)C (stereo partly shown) [24-ethylcholest-4-en-3-one]
- BBB (blood–brain–barrier) [1]: 1.22
- OB% (oral bioavailability) [1]: 36.08%

Molecule: CC(C)=CCc1c(O)cc(O)c2c1O[C@H](c1ccccc1)CC2=O [Glabranin]
- BBB (blood–brain–barrier) [1]: 0.31
- OB% (oral bioavailability) [1]: 52.90%

Molecule: COc1cc(O)cc2c1[C@@H]1Oc3c(ccc(O)c3CC=C(C)C)[C@@H]1CO2 [1-methoxyphaseollidin]
- BBB (blood–brain–barrier) [1]: 0.48
- OB% (oral bioavailability) [1]: 69.98%

Molecule: CC(C)=CCC[C@@H](C)[C@H]1CC[C@@]2(C)[C@@H]3CC[C@H]4C(C)(C)[C@@H](O)CC[C@@]45C[C@@]35CC[C@]12C [Cycloartenol]
- BBB (blood–brain–barrier) [1]: 1.33

Molecule: CC[C@H](/C=C/[C@@H](C)[C@H]1CC[C@H]2[C@@H]3CC=C4C[C@@H](O)CC[C@]4(C)[C@H]3CC[C@]12C)C(C)C [Stigmasterol]
- BBB (blood–brain–barrier) [1]: 1.00
- OB% (oral bioavailability) [1]: 43.83%

Molecule: Medicarpin
- BBB (blood–brain–barrier) [1]: 0.53
- OB% (oral bioavailability) [1]: 49.22%

Molecule: CC1(C)C=Cc2cc([C@@H]3CC(=O)c4ccc5c(c4O3)C=CC(C)(C)O5)ccc2O1 [Xambioona]
- BBB (blood–brain–barrier) [1]: 0.52
- OB% (oral bioavailability) [1]: 54.85%

Molecule: COc1c(O)ccc(C2COc3c(ccc4c3C=CC(C)(C)O4)C2)c1O (stereo not shown) [3′-methoxyglabridin]
- BBB (blood–brain–barrier) [1]: 0.47
- OB% (oral bioavailability) [1]: 46.16%

Molecule: COc1ccc([C@@H]2CC(=O)c3c(O)cc(O[C@@H]4O[C@H](CO[C@@H]5O[C@@H](C)[C@H](O)[C@@H](O)[C@H]5O)[C@@H](O)[C@H](O)[C@H]4O)cc3O2)cc1O [Hesperidin]
- BBB (blood–brain–barrier) [1]: 0.82
- OB% (oral bioavailability) [1]: 32.75%
- exposure in plasma and brain [2, 3]: exposed in the plasma and brain; also recorded: absorbed into the bloodstream and distributed to brain tissues
- time at which concentration in brain peaked [2]: 4 h

Molecule: Oc1ccc2c(c1)OC[C@H]1c3cc4c(cc3O[C@@H]21)OCO4 [Inermine]
- BBB (blood–brain–barrier) [1]: 0.40
- OB% (oral bioavailability) [1]: 75.18%

Molecule: C=C(C(=O)OC1CC2NC(C1)C1OC21)c1ccccc1 (stereo not shown) [Aponorhyoscine]
- BBB (blood–brain–barrier) [1]: 0.40
- OB% (oral bioavailability) [1]: 66.65%

Molecule: CC[C@@H](CC[C@@H](C)[C@H]1CC[C@H]2[C@@H]3CC=C4C[C@@H](O)CC[C@]4(C)[C@H]3CC[C@]12C)C(C)C [Clionasterol]
- BBB (blood–brain–barrier) [1]: 1.14

Molecule: CCCCC[C@H](O)CC(=O)CCc1ccc(O)c(OC)c1 [6-Gingerol]
- BBB (blood–brain–barrier) [1]: 1.22
- OB% (oral bioavailability) [1]: 61.22%

Molecule: Oc1ccc2c(c1)OC[C@H]1c3cc4c(cc3O[C@@H]21)OCO4 [Inermin]
- BBB (blood–brain–barrier) [1]: 0.36
- OB% (oral bioavailability) [1]: 65.83%

Molecule: COC(=O)C1=CO[C@@H](C)[C@@H]2CN3CCc4c([nH]c5ccccc45)[C@@H]3C[C@H]12 [Tetrahydroalstonine]
- BBB (blood–brain–barrier) [1]: 0.33
- OB% (oral bioavailability) [1]: 32.42%

Molecule: CC(C)[C@@H](C)/C=C/[C@@H](C)[C@H]1CC[C@H]2C3=CC[C@H]4C[C@@H](O)CC[C@]4(C)[C@H]3CC[C@]12C [5-dihydroergosterol]
- BBB (blood–brain–barrier) [1]: 0.91
- OB% (oral bioavailability) [1]: 43.51%

Molecule: C=C[C@H]1CN2CC[C@]3(C(=O)Nc4ccccc43)[C@@H]2C[C@@H]1/C(=C\OC)C(=O)OC [Corynoxeine]
- BBB (blood–brain–barrier) [1]: 0.50
- OB% (oral bioavailability) [1]: 57.13%

Molecule: CC[C@H]1CN2CC[C@@]3(C(=O)Nc4ccccc43)[C@@H]2C[C@@H]1/C(=C\OC)C(=O)OC [Isorhyncophylline]
- BBB (blood–brain–barrier) [1]: 0.33
- OB% (oral bioavailability) [1]: 47.31%

Molecule: CC(C)[C@@H](C)/C=C/[C@@H](C)[C@H]1CC[C@@H]2[C@]1(C)CC[C@H]1[C@]23C=C[C@]2(C[C@@H](O)CC[C@]12C)OO3 [Ergosterol peroxide]
- BBB (blood–brain–barrier) [1]: 0.34
- OB% (oral bioavailability) [1]: 40.36%

Molecule: CCCCCCCCCCCCCCC=CCCCC(=O)O [Icos-5-enoic acid]
- BBB (blood–brain–barrier) [1]: 1.09
- OB% (oral bioavailability) [1]: 30.70%
